The results in this text go back to ChEMBL document CHEMBL1151791, “Derivatives of 1,4-bis(3-hydroxycarbonyl-4-hydroxyl)styrylbenzene as PTP1B inhibitors with hypoglycemic activity” (Bioorg Med Chem, 2008).

Each structure is given as a SMILES string. Calls of active or inactive are those of the source. No cut-off for these calls is given here.

In data set [1] the target is T1, Tyrosine-protein phosphatase non-receptor type 1 (Homo sapiens, UniProt P18031).
T1 sequence (P18031 whole entry): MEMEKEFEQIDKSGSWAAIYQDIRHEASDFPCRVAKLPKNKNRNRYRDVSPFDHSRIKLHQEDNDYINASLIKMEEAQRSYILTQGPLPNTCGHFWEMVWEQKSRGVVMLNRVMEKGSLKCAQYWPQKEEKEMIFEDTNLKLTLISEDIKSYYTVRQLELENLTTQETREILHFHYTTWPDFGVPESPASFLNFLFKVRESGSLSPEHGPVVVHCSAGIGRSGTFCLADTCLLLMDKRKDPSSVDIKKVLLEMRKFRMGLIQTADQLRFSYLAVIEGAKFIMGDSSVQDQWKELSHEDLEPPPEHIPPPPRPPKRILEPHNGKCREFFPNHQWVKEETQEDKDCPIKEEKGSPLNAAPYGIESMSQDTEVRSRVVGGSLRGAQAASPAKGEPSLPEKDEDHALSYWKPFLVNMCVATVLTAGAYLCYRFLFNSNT
As to the kind of experiment: Inhibition of PTP1B.

The target in data set [2] is T2, Tyrosine-protein phosphatase non-receptor type 2 (Homo sapiens, UniProt P17706).
T2 sequence (P17706 whole entry): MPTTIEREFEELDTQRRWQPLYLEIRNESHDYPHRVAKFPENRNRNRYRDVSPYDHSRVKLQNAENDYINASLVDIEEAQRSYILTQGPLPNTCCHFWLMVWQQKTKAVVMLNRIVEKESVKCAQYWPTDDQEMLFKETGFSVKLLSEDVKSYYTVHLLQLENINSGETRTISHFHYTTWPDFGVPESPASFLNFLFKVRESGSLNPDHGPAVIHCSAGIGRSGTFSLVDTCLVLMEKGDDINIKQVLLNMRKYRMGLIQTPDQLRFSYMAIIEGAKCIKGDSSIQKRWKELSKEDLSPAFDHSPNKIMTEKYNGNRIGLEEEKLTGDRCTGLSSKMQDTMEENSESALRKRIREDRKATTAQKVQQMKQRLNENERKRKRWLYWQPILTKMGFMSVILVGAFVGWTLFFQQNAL
Put plainly: Inhibition of TC-PTP.

A short description of data set [3]: Inhibition of PTP YOP.
The nature of data set [4]: Inhibition of YPTP1.
The nature of data set [5]: Inhibition of PTP LAR-D1.
Data set [6] addresses Tyrosine-protein phosphatase non-receptor type 6 (Homo sapiens, UniProt P29350). As to the kind of experiment: Inhibition of PTP SHP1.
Data set [7] deals with Mus musculus. As to the kind of experiment: Normalization of blood glucose level in high fat diet fed C57BL/6J Jms Slc mouse at 160 mg/day/kg administered with diet. It is filed as functional, organism-based.
The subject of data set [8] is Mus musculus. As to the kind of experiment: Toxicity in kidney of high fat diet fed C57BL/6J Jms Slc mouse at 160 mg/day/kg for 4 weeks administered with diet. It is filed as organism-based. The note with it: in vivo, po, 672 h.
In data set [9] the test system is Mus musculus. As to the kind of experiment: Reduction in blood glucose level in high fat diet fed C57BL/6J Jms Slc mouse at 160 mg/day/kg administered with diet measured after 27 days. It is filed as functional, organism-based.
For data set [10], the system named is Mus musculus. As to the kind of experiment: Toxicity in lungs of high fat diet fed mouse C57BL/6J Jms Slc at 160 mg/day/kg for 4 weeks administered with diet. The class given is organism-based, Lung. As to conditions: in vivo, po, 672 h.
In data set [11] the test system is Mus musculus. As to the kind of experiment: Toxicity in liver of high fat diet fed C57BL/6J Jms Slc mouse at 160 mg/day/kg for 4 weeks administered with diet. The class given is organism-based. The note with it: in vivo, po, 672 h.

Sequence of Tyrosine-protein phosphatase non-receptor type 6 (P29350 whole entry): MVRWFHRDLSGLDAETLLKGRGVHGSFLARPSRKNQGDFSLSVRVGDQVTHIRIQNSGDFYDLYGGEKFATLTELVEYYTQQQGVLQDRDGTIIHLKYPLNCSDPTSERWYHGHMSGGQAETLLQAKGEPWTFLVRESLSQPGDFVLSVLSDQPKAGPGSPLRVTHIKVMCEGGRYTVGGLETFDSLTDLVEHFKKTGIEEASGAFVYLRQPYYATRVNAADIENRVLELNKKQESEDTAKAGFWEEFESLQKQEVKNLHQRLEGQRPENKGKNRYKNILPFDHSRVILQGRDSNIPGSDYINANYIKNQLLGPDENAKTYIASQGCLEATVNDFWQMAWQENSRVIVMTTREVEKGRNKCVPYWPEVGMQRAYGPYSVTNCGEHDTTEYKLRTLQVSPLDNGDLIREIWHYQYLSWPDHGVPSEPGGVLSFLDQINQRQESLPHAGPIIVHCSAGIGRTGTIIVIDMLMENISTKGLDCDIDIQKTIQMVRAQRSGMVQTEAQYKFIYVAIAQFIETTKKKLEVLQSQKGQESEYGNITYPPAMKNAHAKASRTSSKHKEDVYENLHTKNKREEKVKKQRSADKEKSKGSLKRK

`O=C(O)c1cc(/C=C/c2cc(C(=O)O)c(O)c(-c3ccccc3)c2)ccc1O` registered a concentration for half-maximal inhibition (IC50) in data set [1] of 125 µM.

As to `O=C(O)c1cc(/C=C/c2ccc(/C=C/c3cc(C(=O)O)c(O)c(-c4ccco4)c3)cc2)cc(-c2ccco2)c1O`, the IC50 in data set [1] is 0.53 µM; in data set [2], 8 µM; in data set [3], 5 µM; in [4], 7 µM; in data set [5] it was more than 200 µM; in data set [6], 6 µM.

Regarding `O=C(O)c1cc(/C=C/c2ccccc2)cc(-c2ccccc2)c1O`, the IC50 in [1] was 13 µM; in [2], 173 µM; in data set [3] it was 44 µM; in data set [4], 59 µM; in data set [5] it was more than 1000 µM; in [6] it was 78 µM.

Consider `O=C(O)c1cc(/C=C/c2ccc(/C=C/c3ccc(O)c(C(=O)O)c3)cc2)ccc1O`, for which the IC50 amounted to 5 µM in data set [1]; 27 µM in data set [2]; 13 µM in [3]; 20 µM in data set [4]; 413 µM in data set [5]; 19 µM in data set [6].

In [1], `COc1c(C(=O)O)cc(/C=C/c2ccc(C(=O)O)c(O)c2)cc1-c1ccco1` registered a half-maximal inhibitory concentration (IC50) of 194 µM.

`O=C(O)c1ccc(/C=C/c2cc(Br)c(O)c(C(=O)O)c2)cc1O` came in with a half-inhibitory concentration (IC50) in [1] of 64 µM.

With `O=C(O)c1cc(/C=C/c2ccccc2)ccc1O`, the IC50 in [1] is 34 µM; in [2] it was 234 µM; in data set [3] it was 61 µM; in data set [4], 114 µM; in data set [5], more than 2000 µM; in [6], 126 µM.

As for `COc1cc(/C=C/c2cc(C(=O)O)c(O)c(-c3ccco3)c2)ccc1/C=C/c1cc(C(=O)O)c(O)c(-c2ccco2)c1`, the IC50 was 4 µM in data set [1]; 11 µM in [2]; 5 µM in data set [3]; 10 µM in [4]; 162 µM in data set [5]; 6 µM in data set [6].

For `O=C(O)c1cc(-c2ccccc2)cc(Cc2cc(-c3ccccc3)cc(C(=O)O)c2O)c1O`, the IC50 is 86 µM in data set [4] and more than 2000 µM in data set [5].

As to `O=C(O)c1cc(/C=C/c2ccccc2)cc(Br)c1O`, the IC50 in [1] is 30 µM; in [2], 173 µM; in data set [3], 91 µM; in [4], 153 µM; in data set [5], more than 1000 µM; in [6], 140 µM.

In the case of `O=C(O)c1ccc(/C=C/c2ccc(O)c(C(=O)O)c2)cc1O`, the half-maximal inhibitory concentration (IC50) was 32 µM in data set [1]; 567 µM in [2]; 175 µM in [3]; 370 µM in data set [4]; more than 2000 µM in data set [5]; 231 µM in [6].

As for `COc1cc(/C=C/c2cc(Br)c(O)c(C(=O)O)c2)ccc1/C=C/c1cc(Br)c(O)c(C(=O)O)c1`, the half-inhibitory concentration (IC50) was 6 µM in data set [1]; 32 µM in data set [2]; 12 µM in data set [3]; 21 µM in [4]; 420 µM in data set [5]; 10 µM in data set [6].

With `Oc1ccc(/C=C/c2cc(O)cc(O)c2)cc1` [RESVERATROL], the IC50 in data set [1] is more than 1000 µM.

`O=C(O)c1cc(Cc2cc(C(=O)O)c(O)c(-c3ccccc3)c2)cc(-c2ccccc2)c1O`: the concentration for half-maximal inhibition (IC50) in [4] was 234 µM; in data set [5], more than 2000 µM.

With `O=C(O)c1cc(/C=C/c2ccc(/C=C/c3cc(Br)c(O)c(C(=O)O)c3)cc2)cc(Br)c1O`, the half-inhibitory concentration (IC50) in data set [1] was 3 µM; in [2] it was 37 µM; in data set [3], 10 µM; in data set [4], 13 µM; in data set [5], more than 300 µM; in data set [6] it was 15 µM. Further, the outcome with Mus musculus [7] and with Mus musculus [9] was Active. Moreover, the Activity result with Mus musculus [8], in the data set on Mus musculus [10] and with Mus musculus [11] was “Non-toxic” throughout.
